The supplement of paper PMC8149375

Assays:
Conditions in all cases: treatment: drug + dasatinib (fixed dose, not stated); 5 days
[1] = tested on: SN12C; test: GI50 of drug in presence of dasatinib; higher = less potent
Experimental: (§1)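 Primary HTS combination arm: 8 RCC cell lines treated with 8 doses (up to 10 uM) of each library drug plus a fixed dose of dasatinib (dose not stated) for 5 days; viability read by CellTiter-Glo and normalised to DMSO. GI50 was fitted with XLfit, AUC is the area under the dose-response curve, and minimum viability is the lowest fraction of DMSO viability across doses.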

[2] = tested on: UO-31; test: as above
Experimental: as §1

[3] = tested on: ACHN; test: as above
Experimental: as §1

[4] = tested on: 769-P; test: as above
Experimental: as §1

[5] = tested on: TK-10; test: as above
Experimental: as §1

[6] = tested on: CAKI-1; test: as above
Experimental: as §1

[7] = tested on: A498; test: as above
Experimental: as §1

[8] = tested on: 786-O; test: as above
Experimental: as §1

[9] = tested on: SN12C; test: AUC of dose-response viability curve, drug + dasatinib, normalised to DMSO (arbitrary (AUC of normalised viability)); higher = less growth inhibition
Experimental: as §1

[10] = tested on: UO-31; test: as above
Experimental: as §1

[11] = tested on: ACHN; test: as above
Experimental: as §1

[12] = tested on: 769-P; test: as above
Experimental: as §1

[13] = tested on: TK-10; test: as above
Experimental: as §1

[14] = tested on: CAKI-1; test: as above
Experimental: as §1

[15] = tested on: A498; test: as above
Experimental: as §1

[16] = tested on: 786-O; test: as above
Experimental: as §1

[17] = tested on: SN12C; test: minimum viability across doses, drug + dasatinib, relative to DMSO (fraction); higher = less growth inhibition
Experimental: as §1

[18] = tested on: UO-31; test: as above
Experimental: as §1

[19] = tested on: ACHN; test: as above
Experimental: as §1

[20] = tested on: 769-P; test: as above
Experimental: as §1

[21] = tested on: TK-10; test: as above
Experimental: as §1

[22] = tested on: CAKI-1; test: as above
Experimental: as §1

[23] = tested on: A498; test: as above
Experimental: as §1

[24] = tested on: 786-O; test: as above
Experimental: as §1

Compound	GI50 of drug [1] [µM]	GI50 of drug [2] [µM]	GI50 of drug [3] [µM]	GI50 of drug [4] [µM]	GI50 of drug [5] [µM]	GI50 of drug [6] [µM]	GI50 of drug [7] [µM]	GI50 of drug [8] [µM]	AUC of dose-response viability curve [9]	AUC of dose-response viability curve [10]	AUC of dose-response viability curve [11]	AUC of dose-response viability curve [12]	AUC of dose-response viability curve [13]	AUC of dose-response viability curve [14]	AUC of dose-response viability curve [15]	AUC of dose-response viability curve [16]	minimum viability across doses [17]	minimum viability across doses [18]	minimum viability across doses [19]	minimum viability across doses [20]	minimum viability across doses [21]	minimum viability across doses [22]	minimum viability across doses [23]	minimum viability across doses [24]
CCCCOc1c(C(=O)c2c(F)cc(C)cc2F)cnc2[nH]ncc12 + Cc1nc(Nc2ncc(C(=O)Nc3c(C)cccc3Cl)s2)cc(N2CCN(CCO)CC2)n1 [dasatinib]	> 10	2.65	0.015	> 10	0.322	2.58	> 10	0.0252	2.47	3.38	1.18	2.26	1.89	1.94	3.45	1.09	0.565	0.182	0.135	0.52	0.377	0.378	0.795	0.0144
COCC(=O)NC/C=C/c1ccc2ncnc(Nc3ccc(Oc4ccc(C)nc4)c(C)c3)c2c1 + Cc1nc(Nc2ncc(C(=O)Nc3c(C)cccc3Cl)s2)cc(N2CCN(CCO)CC2)n1 [dasatinib]	> 10	> 10	3.03	2.13	3.97	6.79	> 10	9.12	2.48	3.68	1.88	2.18	2.41	2.26	3.67	2.46	0.632	0.653	0.386	0.253	0.406	0.492	0.925	0.479
CCc1cc2c(cc1N1CCC(N3CCOCC3)CC1)C(C)(C)c1[nH]c3cc(C#N)ccc3c1C2=O + Cc1nc(Nc2ncc(C(=O)Nc3c(C)cccc3Cl)s2)cc(N2CCN(CCO)CC2)n1 [dasatinib]	> 10	7.8	0.659	> 10	5.11	2.34	> 10	> 10	2.45	5.15	1.82	2.47	2.35	2.04	4.59	2.35	0.675	0.0552	0.247	0.535	0.377	0.311	1.12	0.614
CN1CCN(c2cccc(Nc3nc4c(-c5ccc(S(C)(=O)=O)cc5)cccn4n3)c2)CC1 + Cc1nc(Nc2ncc(C(=O)Nc3c(C)cccc3Cl)s2)cc(N2CCN(CCO)CC2)n1 [dasatinib]	> 10	3.16	0.00378	4.17	1.25	0.704	> 10	5.28	2.37	3.59	1.23	2.27	2.12	1.84	3.99	2.21	0.246	0.0195	0.0965	0.293	0.174	0.0803	1.02	0.443
CN(C)c1ccc(-c2nc3c(N4CCN(CC(=O)Nc5nccs5)CC4)c(Cl)cnc3[nH]2)cc1 + Cc1nc(Nc2ncc(C(=O)Nc3c(C)cccc3Cl)s2)cc(N2CCN(CCO)CC2)n1 [dasatinib]	0.976	2.84	0.162	1.95	4.03	0.334	3.35	0.953	2.03	3.26	1.53	2.19	2.34	1.69	2.88	1.91	0.2	0.107	0.145	0.307	0.487	0.0775	0.281	0.26
Cc1cc(CN2CCN(c3c(Br)cnc4[nH]c(-c5ccc(N6CCN(C)CC6)cc5)nc34)CC2)no1 + Cc1nc(Nc2ncc(C(=O)Nc3c(C)cccc3Cl)s2)cc(N2CCN(CCO)CC2)n1 [dasatinib]	0.626	2.45	0.141	0.504	1.82	0.231	2.01	0.232	1.78	3.64	1.5	1.76	2.24	1.57	3.1	1.52	0.00484	0.0168	0.0106	0.019	0.198	0.00433	0.0164	0.00361
Cc1c(NC(=O)OC[C@@H]2COCCN2)cn2ncnc(Nc3ccc4c(cnn4Cc4cccc(F)c4)c3)c12.Cl + Cc1nc(Nc2ncc(C(=O)Nc3c(C)cccc3Cl)s2)cc(N2CCN(CCO)CC2)n1 [dasatinib]	> 10	5.46	0.23	0.652	1.14	2.43	> 10	7.25	2.47	2.98	1.84	2.01	2.31	2.24	3.28	2.62	0.662	0.251	0.249	0.157	0.19	0.441	0.858	0.444
